Results on 16 compounds are retold here after patent publication US12208110B2 (priority 2020, dated 2025).

Holding throughout (type): cell-based
Series [1] concerns RSV-Fluc (Recombinant Respiratory Syncytial virus strain A2 containing the firefly luciferase reporter). The series is described as follows: microbe, parasite or virus in culture. The following applies: human respiratory syncytial virus, NHBE, 72 h, read-out: RSV-Fluc EC50 (nM, NHBE).
In the next series the test system is SARS-CoV-2. The series is described as follows: microbe, parasite or virus in culture. Particulars: Severe acute respiratory syndrome coronavirus 2, 48 h.
The nature of series [2]: MT4 cytotoxicity analysis (CellTiter-Glo). Particulars: human. How it is done:
Example 79: MT4 Cytotoxicity Analysis
3-fold serially diluted compound in DMSO, ranging from 2.5 uM to 10 mM, were added by acoustic transfer (Echo) in quadruplicate into black 384-well plates at 200 nl/well. After compound addition, 40 ul MT-4 cells at 80,000/ml were added to each well using a MicroFlo liquid dispenser (BioTek, Winooski, VT) and the cells were cultured for five days at 37° C. Following the incubation, cell viability was determined by adding 35 μL of CellTiter-Glo viability reagent and mixed thoroughly using ViaFlo 384 well workstation. The mixture was incubated for at least 10 minutes at 25° C., and the luminescence signal was quantified on an EnVision plate reader.
(In general: In ATP-based viability assays light output follows the ATP content of the culture.)

The mark [3] stands for this setting: MT-4 cells, five days, CellTiter-Glo, read-out: MT4 CC50.

Read-outs that look alike come from different tables or passages of the source.

Usually EC50 stands for the concentration giving half of the maximal effect. A word on the CC50: it is the concentration giving 50% cytotoxicity. For the compound `CCCCCCCCCCCCCCCCCCOC[C@H](COP(=O)(O)OC[C@H]1O[C@@](C#N)(c2ccc3c(N)ncnn23)[C@H](O)[C@@H]1O)N(C)Cc1ccccc1` [Example 2, ((2R,3S,4R,5R)-5-(4-aminopyrrolo[2,1-f][1,2,4]triazin-7-yl)-5-cyano-3,4-dihydroxytetrahydrofuran-2-yl)methyl ((R)-2-(benzyl(methyl)amino)-3-(octadecyloxy)propyl) hydrogen phosphate], the figures for the EC50 (in series [1]; in the series with SARS-CoV-2) were 5000 nM and 10 µM, respectively. In addition, in series [2] (MT4 CC50 (nM)), the cytotoxic concentration (CC50) at 5 days turned out to be 25000 nM.
As to `CCCCCCCCCCCCCCCCCCOC[C@H](COP(=O)(O)OC[C@H]1O[C@@](C#N)(c2ccc3c(N)ncnn23)[C@H](O)[C@@H]1O)N(C)C(=O)c1ccc(F)c(Cl)c1` [Example 4, ((2R,3S,4R,5R)-5-(4-aminopyrrolo[2,1-f][1,2,4]triazin-7-yl)-5-cyano-3,4-dihydroxytetrahydrofuran-2-yl)methyl ((R)-2-(3-chloro-4-fluoro-N-methylbenzamido)-3-(octadecyloxy)propyl) hydrogen phosphate], the EC50 came out at 540 nM in series [1] and 9.4 µM in the series with SARS-CoV-2. Also, the cytotoxic concentration (CC50) at 5 days in series [2] (MT4 CC50 (nM)) amounted to 13000 nM.
As to `CCCCCCCCCCCCCCCCCCO[C@@H](C)[C@H](COP(=O)(O)OC[C@H]1O[C@@](C#N)(c2ccc3c(N)ncnn23)[C@H](O)[C@@H]1O)OCc1ccccc1` [Example 5, ((2R,3S,4R,5R)-5-(4-aminopyrrolo[2,1-f][1,2,4]triazin-7-yl)-5-cyano-3,4-dihydroxytetrahydrofuran-2-yl)methyl ((2S,3S)-2-(benzyloxy)-3-(octadecyloxy)butyl) hydrogen phosphate], the EC50 in series [1] turned out to be 50 nM; with SARS-CoV-2, 2.5 µM. In series [2] (MT4 CC50 (nM)), this compound displayed a 50% cytotoxic concentration (CC50) at 5 days of 3400 nM.
With `CCCCCCCCCCCCCCCCCCOC[C@H](COP(=O)(O)OC[C@H]1O[C@@](C#N)(c2ccc3c(N)ncnn23)[C@H](O)[C@@H]1O)SCc1ccccc1` [Example 7, ((2R,3S,4R,5R)-5-(4-aminopyrrolo[2,1-f][1,2,4]triazin-7-yl)-5-cyano-3,4-dihydroxytetrahydrofuran-2-yl)methyl ((R)-2-(benzylthio)-3-(octadecyloxy)propyl) hydrogen phosphate], the concentration giving a half-maximal response (EC50) was 360 nM in series [1] and 10 µM in the series with SARS-CoV-2. In series [2] (MT4 CC50 (nM)), this compound returned a CC50 at 5 days of 39000 nM.
Take `CCCCCCCCCCCCCCCCCCO[C@H](C)[C@H](COP(=O)(O)OC[C@H]1O[C@@](C#N)(c2ccc3c(N)ncnn23)[C@H](O)[C@@H]1O)OCc1ccccc1` [Example 8, ((2R,3S,4R,5R)-5-(4-aminopyrrolo[2,1-f][1,2,4]triazin-7-yl)-5-cyano-3,4-dihydroxytetrahydrofuran-2-yl)methyl ((2S,3R)-2-(benzyloxy)-3-(octadecyloxy)butyl) hydrogen phosphate]: the EC50 in series [1] turned out to be 160 nM; with SARS-CoV-2 it was 2.9 µM. In addition, it took 1800 nM to reach half-maximal cytotoxicity in series [2] (MT4 CC50 (nM)) (CC50 at 5 days).
As to `CCCCCCCCCCCCCCCCCCOC[C@H](COP(=O)(O)OC[C@H]1O[C@@](C#N)(c2ccc3c(N)ncnn23)[C@H](O)[C@@H]1O)N1Cc2cc(Cl)c(Cl)cc2C1` [Example 9, ((2R,3S,4R,5R)-5-(4-aminopyrrolo[2,1-f][1,2,4]triazin-7-yl)-5-cyano-3,4-dihydroxytetrahydrofuran-2-yl)methyl ((R)-2-(5,6-dichloroisoindolin-2-yl)-3-(octadecyloxy)propyl) hydrogen phosphate], the concentration for a half-maximal effect (EC50) in series [1] was 490 nM; in the series on SARS-CoV-2 it was 9 µM. The compound further displayed a CC50 at 5 days in series [2] (MT4 CC50 (nM)) of 20000 nM.
With `CCCCCCCCCCCCCCCCCCOC[C@H](COP(=O)(O)OC[C@H]1O[C@@](C#N)(c2ccc3c(N)ncnn23)[C@H](O)[C@@H]1O)NC(=O)c1ccccc1C(=O)O` [Example 14, 2-(((2R)-1-(((((2R,3S,4R,5R)-5-(4-aminopyrrolo[2,1-f][1,2,4]triazin-7-yl)-5-cyano-3,4-dihydroxytetrahydrofuran-2-yl)methoxy)(hydroxy)phosphoryl)oxy)-3-(octadecyloxy)propan-2-yl)carbamoyl)benzoic acid], the EC50 in series [1] was 53 nM; with SARS-CoV-2 it was 0.7 µM. Moreover, in series [2] (MT4 CC50 (nM)), the CC50 at 5 days came to 26000 nM.
Turning to `CCCCCCCCCCCCCCCCCCOC[C@H](COP(=O)(O)OC[C@H]1O[C@@](C#N)(c2ccc3c(N)ncnn23)[C@H](O)[C@@H]1O)N1C(=O)c2ccccc2C1=O` [Example 15, ((2R,3S,4R,5R)-5-(4-aminopyrrolo[2,1-f][1,2,4]triazin-7-yl)-5-cyano-3,4-dihydroxytetrahydrofuran-2-yl)methyl ((R)-2-(1,3-dioxoisoindolin-2-yl)-3-(octadecyloxy)propyl) hydrogen phosphate], the figures for the half-maximal effective concentration (EC50) (in series [1]; in the series on SARS-CoV-2) were 140 nM and 2.5 µM, respectively. The same compound gave a cytotoxic concentration (CC50) at 5 days in series [2] (MT4 CC50 (nM)) of 35000 nM.
The matching figures for `CCCCCCCCCCCCCCCCCCOC[C@H](COP(=O)(O)OC[C@H]1O[C@@](C#N)(c2ccc3c(N)ncnn23)[C@H](O)[C@@H]1O)Nc1cccc(C#N)c1` [Example 16, ((2R,3S,4R,5R)-5-(4-aminopyrrolo[2,1-f][1,2,4]triazin-7-yl)-5-cyano-3,4-dihydroxytetrahydrofuran-2-yl)methyl ((R)-2-((3-cyanophenyl)amino)-3-(octadecyloxy)propyl) hydrogen phosphate]: 100 nM, 1.1 µM and 1900 nM.
As to `CCCCCCCCCCCCCCCCCCOC[C@H](COc1ccccc1)OP(=O)(O)OC[C@H]1O[C@@](C#N)(c2ccc3c(N)ncnn23)[C@H](O)[C@@H]1O` [Example 18, ((2R,3S,4R,5R)-5-(4-aminopyrrolo[2,1-f][1,2,4]triazin-7-yl)-5-cyano-3,4-dihydroxytetrahydrofuran-2-yl)methyl ((R)-1-(octadecyloxy)-3-phenoxypropan-2-yl) hydrogen phosphate], the concentration for a half-maximal effect (EC50) in series [1] was 69 nM; in the series with SARS-CoV-2 it was 1.8 µM. Moreover, the CC50 at 5 days in series [2] (setting [3]) was 670 nM.
`CCCCCCCCCCCCCCCCCCOCCOP(=O)(O)OC[C@H]1O[C@@](C#N)(c2ccc3c(N)ncnn23)[C@H](O)[C@@H]1O` [Example 21, ((2R,3S,4R,5R)-5-(4-Aminopyrrolo[2,1-f][1,2,4]triazin-7-yl)-5-cyano-3,4-dihydroxytetrahydrofuran-2-yl)methyl (2-(octadecyloxy)ethyl) hydrogen phosphate]: the EC50 was 250 nM in series [1] and 9.1 µM with SARS-CoV-2. Moreover, in series [2] (setting [3]), the half-maximal cytotoxic concentration (CC50) at 5 days was 2300 nM.
For `CCCCCCCCCCCCCCCCCCO[C@H](COCc1ccccc1)COP(=O)(O)OC[C@H]1O[C@@](C#N)(c2ccc3c(N)ncnn23)[C@H](O)[C@@H]1O` [Example 22, ((2R,3S,4R,5R)-5-(4-aminopyrrolo[2,1-f][1,2,4]triazin-7-yl)-5-cyano-3,4-dihydroxytetrahydrofuran-2-yl)methyl ((R)-3-(benzyloxy)-2-(octadecyloxy)propyl) hydrogen phosphate], the EC50 in series [1] came out at 150 nM; with SARS-CoV-2 it was 3.9 µM. In addition, the CC50 at 5 days in series [2] (setting [3]) was 9600 nM.
On the same counts, the results for `CCCCCCCCCCCCCCCCO[C@H](COCc1ccccc1)COP(=O)(O)OC[C@H]1O[C@@](C#N)(c2ccc3c(N)ncnn23)[C@H](O)[C@@H]1O` [Example 23, ((2R,3S,4R,5R)-5-(4-aminopyrrolo[2,1-f][1,2,4]triazin-7-yl)-5-cyano-3,4-dihydroxytetrahydrofuran-2-yl)methyl ((R)-3-(benzyloxy)-2-(hexadecyloxy)propyl) hydrogen phosphate] are 83 nM, 10 µM and 23000 nM.
With `CCCCCCCCCCCCCCO[C@H](COCc1ccccc1)COP(=O)(O)OC[C@H]1O[C@@](C#N)(c2ccc3c(N)ncnn23)[C@H](O)[C@@H]1O` [Example 24, ((2R,3S,4R,5R)-5-(4-Aminopyrrolo[2,1-f][1,2,4]triazin-7-yl)-5-cyano-3,4-dihydroxytetrahydrofuran-2-yl)methyl ((R)-3-(benzyloxy)-2-(tetradecyloxy)propyl) hydrogen phosphate], the half-maximal effective concentration (EC50) in series [1] is 73 nM; in the series with SARS-CoV-2 it was 9.9 µM. Besides, the cytotoxic concentration (CC50) at 5 days in series [2] (setting [3]) is 35000 nM.
Consider `CCCCCCCCCCCCCCCCCCOC[C@H](CO[P@@](=O)(S)OC[C@H]1O[C@@](C#N)(c2ccc3c(N)ncnn23)[C@H](O)[C@@H]1O)OCc1ccccc1` [Example 28, O-(((2R,3S,4R,5R)-5-(4-aminopyrrolo[2,1-f][1,2,4]triazin-7-yl)-5-cyano-3,4-dihydroxytetrahydrofuran-2-yl)methyl) O—((R)-2-(benzyloxy)-3-(octadecyloxy)propyl)S-hydrogen (R)-phosphorothioate], for which the EC50 in series [1] turned out to be 190 nM; in the series with SARS-CoV-2, 3.8 µM. The compound further registered a CC50 at 5 days in series [2] (MT4 CC50 (nM)) of 24000 nM.
With `CCCCCCCCCCCCCCCCCCOC[C@H](COP(=O)(O)OC[C@H]1O[C@@](C#N)(c2ccc3c(N)ncnn23)[C@H](O)[C@@H]1O)Oc1c(C#N)cc(C)cc1C#N` [Example 29, ((2R,3S,4R,5R)-5-(4-aminopyrrolo[2,1-f][1,2,4]triazin-7-yl)-5-cyano-3,4-dihydroxytetrahydrofuran-2-yl)methyl ((R)-2-(2,6-dicyano-4-methylphenoxy)-3-(octadecyloxy)propyl) hydrogen phosphate], the EC50 in series [1] came to 70 nM; with SARS-CoV-2, 2.7 µM. The midpoint of cytotoxicity in series [2] (MT4 CC50 (nM)), the CC50 at 5 days, lay at 500 nM.
